Measurements from patent publication US11524009B2, “Combination comprising at least one spliceosome modulator and at least one inhibitor chosen from BCL2 inhibitors, BCL2/BCLxL inhibitors, and BCLxL inhibitors and methods of use” (Eisai R&D Management Co., Ltd., priority 2017, dated 2022).

How the values were obtained:
Format in all cases: cell-based
[1] = test system: MCL1 protein in NCIH1568 cells; test: Western Blot Analysis of MCL1L, truncated MCL1 and cleaved PARP; conditions: 6 hours
Protocol: Cell lines were lysed in RIPA buffer (Boston BioProducts) plus protease-inhibitor cocktail (Mini-complete, EDTA-free, Roche) and phosphatase inhibitor PhosSTOP (Roche). Lysates were diluted in RIPA buffer with 4×LDS Sample Buffer (Nupage, Thermo Fisher Scientific) and 10× Reducing Reagent (Nupage, Thermo Fisher Scientific) and boiled for 5 minutes. Twenty five micrograms of protein were loaded per well in 4-12% Bis-Tris SDS Page gels (Novex, Thermo Fisher Scientific). Gels were transferred to nitrocellulose membranes using iBlot system (Thermo Fisher Scientific). Membranes were blocked in blocking buffer (1× Tris-Buffered Saline+0.1% Tween-20 (Boston Bioproducts)+5% Non-Fat Dry Milk (Bio-Rad)) for 1 hour and then cut. Each section was probed separately with antibodies to each of the following proteins in blocking buffer: MCL1 (Cell Signaling Technologies 5453) (D35A5) rabbit monoclonal diluted 1:500, BCL-xL (Cell Signaling Technologies 2764) (54H6) rabbit monoclonal diluted 1:500, Cleaved Parp (Cell Signaling Technologies 5625) (D64P10) rabbit monoclonal diluted 1:500, and GAPDH (Sigma G8795) mouse monoclonal at 100 ng/mL. Blots were incubated with primary antibodies dilutions shaking at 4° C. overnight. Western blots were then blotted either with Odyssey Licor or HRP secondary antibodies. Blots were then washed four times using wash buffer (1× Tris-Buffered Saline+0.1% Tween-20). Blots imaged using Licor were probed shaking at room temperature for 1 hour with Licor IR-labeled secondary antibodies, IRDye® 800CW Goat anti-Rabbit IgG (Odyssey 925-32211) and IRDye® 680LT Goat anti-Mouse IgG (Odyssey 925-68020) diluted 1:10,000 in blocking buffer. Blots were then washed three times with wash buffer. IR-dye detection was performed using the Licor imaging system (Odyssey) according to manufacturer's instruction. Blots imaged using HRP were probed shaking at room temperature for 1 hour with Anti-mouse IgG, HRP-linked Antibody (Cell Signaling Technologies 7076) and Anti-rabbit IgG, HRP-linked Antibody (Cell Signaling Technologies 7074) diluted 1:5000 in blocking buffer. […]

[2] = test system: NCIH1568 cells; test: Growth inhibition, MCL1 rescue by MCL1L cDNA overexpression; conditions: NCIH1568 (MCL1-dependent), Dox-induced MCL1L cDNA vs empty vector
From the text: (§1) BCL-xL shRNA 1 ([…]) (Wei G, et al., 2012, Cancer Cell 21(4): 547-562) was cloned into Agel and EcoRl of the Tet inducible lentiviral pLKO-iKD-H1 puro vector (Wiederschain D, et al., 2009, Cell Cycle 8(3): 498-504). MCL1 shRNA 48 ([…]) (Wei G, et al., 2012, Cancer Cell 21(4): 547-56) was cloned into Agel and EcoRl of the Tet inducible lentiviral pLKO-iKD-U6 puro vector. MCL1-L pENTR-D-TOPO was Gateway cloned (LR clonase, Thermo Fisher Scientific) into pINDUCER20 (Meerbrey K L, et al., 2011, Proc Natl Acad Sci USA. 108(9):3665-3670). Lentiviruses were prepared in LentiX-293T cells. […]
(§2) For compound dose response experiments, cells were plated in 96 or 384 well plates at 1,000 cells in 50 μl per well. […] At t=0, untreated cells were lysed with CellTiter-Glo and measured on an Envision plate reader. At t=72 (72 hours after compound addition), cells treated with compound were lysed with CellTiter-Glo and analyzed on Envision. The luminescence value from each treatment sample was normalized to the average value of the respective DMSO control. […]

[3] = test system: A549 cells; test: Growth inhibition with or without Dox-induced knockdown of BCLxL
From the text: as §1, §2

[4] = test system: MCL1 gene splicing in NCIH1568 cells; test: Quantitative RT-PCR detection of MCL1 mRNAs (splicing modulation); conditions: six-hour treatment, qRT-PCR
Protocol: RNA lysates were isolated from cells treated with compounds in 96 well plates and reverse transcribed using TaqMan Gene Expression Cells-to-CT Kit (Thermo Fisher Scientific) according to manufacturer's instruction. Quantitative PCR was performed using TaqMan Gene Expression Master Mix (Thermo Fisher Scientific) with MCL1 transcript probes (Integrated DNA technologies FAM-ZEN/IBFQ) duplexed with 18S rRNA VIC-PL (Thermo Fisher Scientific assay ID Hs99999901_s1) and quantified using the ΔΔCt method.

CC[C@H](O)[C@@H](C)[C@H]1O[C@@H]1C[C@@](C)(O)/C=C/C=C(\C)[C@H]1OC(=O)C[C@H](O)CC[C@@](C)(O)[C@@H](OC(=O)N2CCN(C3CCCCCC3)CC2)/C=C/[C@@H]1C [E7107, (8E,12E,14E)-7-((4-Cycloheptylpiperazin-1-yl)carbonyl)oxy-3,6,16,21-tetrahydroxy-6,10,12,16,20-pentamethyl-18,19-epoxytricosa-8,12,14-trien-11-olide]
cleaved PARP protein (indicator of apoptosis) [1]: induction
full length MCL1 protein [1]: dose-dependent downregulation
truncated short-form MCL1 protein product [1]: increased in a dose-dependent manner
cell death with cDNA overexpression of MCL1L [2]: rescued the cell death
growth inhibition ([3]; A549 (MCL1-independent), without BCLxL knockdown): cytostatic inhibition
growth inhibition ([3]; A549, inducible knockdown of BCLxL (Dox)): clear cell death
MCL1L mRNA [4]: robust reduction
MCL1S mRNA [4]: transient expression
MCL1 pre-mRNA with intron-retention [4]: continuous induction
